From patent US8680076B2, “Methods of treatment, improvement and prevention using haloaryl substituted aminopurines” (Signal Pharmaceuticals, LLC, priority 2010, dated 2014)
Entries after “also recorded” stand apart in the source; their conditions may differ.

Legend:
[1] = tested on: phospho c-Jun (JNK) in human skin; assay: UVB-irradiated human skin, phospho c-Jun IHC (3-way crossover study); type: in vivo; conditions: for median subjective score of phospho c-Jun: scale 0-4, placebo score 4
Protocol: The inhibitory effect of JNKi-1 on JNK was evaluated by assessing the status of the downstream substrate c-Jun (“cJun”) and phospho-c-Jun (or “p-cJun”) following UV irradiation of human skin.
The study was designed as randomized, double blind, placebo controlled, multiple dose, 3-way crossover study. Fifteen subjects were randomized to one of 3 sequences (5 subjects per sequence) as outlined below (see Table 3). There was a 7-day to 10 day washout period (no more than 14 days) from the last dose of the previous period to the first dose of the next period.
Fifteen patients enrolled, 14 completed the study and were included in the PD and PK analyses; all were healthy Caucasian male volunteers with Fitzpatrick skin type 2. The mean age was […] (20-49 years) and weight was 81 kg (64-96 kg). On the evening of Day-1, patients started fasting (at least an 8-hour fast prior to dosing on Day 1). Subjects received treatment A, B or C in Periods 1 to 3 under fasting conditions in an order based on the randomization scheme. Subjects went through the same procedures (except for the change in treatment) for all 3 periods, with the required washout in between periods. No strenuous activities were permitted during confinement. All efforts were made to keep activities, environment, food, procedures, and schedule between treatment periods identical.
On Day 6, subjects received a 2×MED UV dose to two sites on the buttock. One punch biopsy (approximately 3 mm in diameter by 0.8 mm in depth) was taken from one of the two UV irradiated sites. The punch biopsies were taken at 8 (±5 minutes) hours post UV exposure on Day 6.
Skin specimens from the biopsies was analyzed for phospho c-Jun and total c-Jun using IHC assay. Phospho c-Jun was quantified using a 0-4 subjective grading scales and/or objective scoring using an automated system, i.e. a laser scanning cytometer (LSC), evaluating the integrated intensity of staining measured optically.
Biopsies were analyzed following the procedures described below to evaluate phospho c-Jun and c-Jun expression using IHC assay. The method employed to assess JNK activation was a two antibody IHC assay that employed a primary antibody, directed against the target, and a secondary antibody conjugated with a chromogenic enzyme. Thus, the method was a two-step immunohistochemical assay designed to interrogate the target, c-Jun and phospho c-Jun. Any changes in JNK activity were measurable in the amounts of these target molecules, c-Jun and phospho c-Jun. The secondary antibody-reporter conjugate deposited a red color when incubated with the substrate reaction mix, thus marking the location of the primary antibody target complex. The red color was then recorded with standard bright-field illumination using a Nikon microscope. The microscope images were then photographed and electronic images were scored (blinded) by three independent and trained scorers using the following guidelines. A score of 0 indicated staining of 0-19% of the epithelial keratinocyte nuclei; a score of 1 indicated staining of 20-39% of the epithelial keratinocyte nuclei; a score of 2 indicated staining of 40-59% of the epithelial keratinocyte nuclei; a score of 3 indicated staining of 60-79% of the epithelial keratinocyte nuclei; and a score of 4 indicated staining of 80-100% of the epithelial keratinocyte nuclei. FIG. 21 depicts representative immunostaining for the respective scores.
For each tissue, a count of nuclei in the epithelial layer was obtained. All phospho c-Jun or c-Jun positive nuclei were counted as well as their integral (intensity). A score was calculated for each: score=(p-cJun or cJun positive nuclei×average Intensity)/Total nuclei.

[2] = tested on: phospho-c-Jun (JNK) in normal human epithelial keratinocytes (nHEK); assay: UVB-stimulated JNK activation in nHEK cells (Western blot); type: cell-based
Protocol: Two in vitro systems, nHEK and the EpiDermFT™ skin model, were used in this study. The nHEK cells and EpiDermFT™ samples were pretreated with JNKi-1 at concentrations of 0.1, 3, and 10 μM prior to 60 mJ/cm^2 and 135 mJ/cm^2 UVB irradiation, respectively. After UV stimulation, the activities of JNK were measured as levels of phospho-c-Jun via immunoblotting of cell lysates using an anti-phospho-c-Jun S63 antibody. Phospho-Stat3 was also evaluated as a marker of JNK activation.
nHEK Model system. Normal human epithelial keratinocytes (nHEK) cells were grown after three passages. Cells were plated at 2×10^6/plate in 100 mm plates. Plates were incubated at 37° C., 5% CO2 for 5 days until ˜80% confluent. Each plate was washed with warm phosphate buffered saline (PBS) and replenished with 10 mL of media containing either 0, 0.1, 3, or 10 μM of JNKi-1 and incubated for 1 hour (hr) at 37° C. Eight mL of media were removed and set aside. Plates were irradiated with 60 mJ/cm^2 of UVB in a UV cross-linker machine and control plates were sham irradiated. The 8 mL of media set aside were returned to each plate and stored at 37° C. Cells were harvested at 30 minutes and 4 hr post UV treatment and lysed in ice cold cell extraction buffer. Lysates were stored at −80° C.
cells were pre-incubated with either dimethyl sulfoxide (DMSO) (FIG. 31, lanes 1, 2, and 12 to 15) or JNKi-1 at the indicated concentration (lanes 3 to 11) for 1 hr and then irradiated without (Control, lanes 1 and 2) or with UVB at 60 mJ/cm^2 (lanes 3 to 15). Cells were lysed 30 minutes after UV irradiation and cell lysates were subjected to sodium dodecyl sulfate polyacrylamide gel electrophoresis (SDS-PAGE) before Western blotting with anti-phospho-c-Jun antibody. […]
Western analysis: For Western blot analysis, 20 to 25 μg of total protein were applied to SDS-PAGE gels followed by electrophoresis and blotting. […] The intensity of each band was quantified by the Odyssey 2.1 software and exported into Excel for further analysis. […]

SMILES: O[C@H]1CC[C@H](Nc2ncc3nc(Nc4c(F)cc(F)cc4F)n([C@H]4CCOC4)c3n2)CC1 [JNKi-1, 4-((9-((3S)-tetrahydro-3-furanyl)-8-((2,4,6-trifluorophenyl)amino)-9H-purin-2-yl)amino)-trans-cyclohexanol]
- patients with reduced phospho c-Jun, subjective scoring ([1]; 75 mg QD x 6 days): 57%
- patients with reduced phospho c-Jun, subjective scoring ([1]; 75 mg QD x 6 days, 2xMED UVB, biopsy 8 hours post UV): 8/14
- median subjective score of phospho c-Jun ([1]; 75 mg QD x 6 days): 3
- frequency of high phospho c-Jun subjective scores ([1]; 75 mg and 200 mg vs placebo): fewer subjects had high p-cJun scores; also recorded: fewer patients had high scores
- phospho c-Jun by laser scanning cytometry (LSC) analysis ([1]; 75 mg or 200 mg): Decrease in phospho c-Jun was confirmed
- odds ratio, phospho c-Jun scores 0, 1, 2 vs. scores 3, 4 (logistic regression) ([1]; 75 mg vs. placebo): 10.96
- patients with inhibited phospho c-Jun, subjective scoring ([1]; 200 mg QD x 6 days): 78%
- patients with inhibited phospho c-Jun, subjective scoring ([1]; 200 mg QD x 6 days, 2xMED UVB, biopsy 8 hours post UV): 11/14
- median subjective score of phospho c-Jun ([1]; 200 mg QD x 6 days): 1
- odds ratio, phospho c-Jun scores 0, 1, 2 vs. scores 3, 4 (logistic regression) ([1]; 200 mg vs. placebo): 41.89
- elevation of phospho c-Jun induced by the UVB irradiation ([1]; oral, about 75 mg to about 200 mg, in a majority of patients): partially or completely inhibited
- phospho c-Jun immunostaining, percentage of positive epithelial nuclei, Patient 15 ([1]; versus placebo): significantly decreased
- IC50 ([2]; Homo sapiens, light or radiation study, nHEK, 1 hr pretreatment, UVB 60 mJ/cm^2, lysed 30 minutes after UV, read-out: IC50 for p-cJun): 100 to 3000 nM
- UVB-induced JNK activation (phospho-c-Jun level), in words ([2]; nHEK, 0.1, 3, 10 μM): strongly Inhibits; also recorded: significantly blocks
- inhibition of phospho-Stat3 ([2]; nHEK, 30 minutes post UV, data not shown): minimal
